Data published in US11944090B2, “Compositions and methods for attracting fire ants” (The United States of America, as represented by The …, priority 2021, dated 2024).
“And” between values parts separate entries of the source, which are not always exact repeats. Identical values can stand only once. “Also recorded” adds a separate entry of the source.

Assays:
fire ants [1] = experiment: Field multiple-choice feeding bioassay (soybean oil consumption); type: in vivo, Solenopsis invicta; conditions: for difference among treatments and control in oil consumption / feeding preference on soybean oil (one-way ANOVA): all tested concentrations of each compound in soybean oil, field multiple-choice; for concentration at which oil consumption was numerically the highest: multiple-choice bioassay of known attractants; for concentration at which the effect on oil consumption was statistically significant compared to the control oil: Tukey's HSD; for effect of different concentrations on oil consumption (one-way ANOVA): first multiple-choice bioassay: 10-oxo 9.09, 4.54, 2.27, 1.14 mg/g, 11-oxo 8.62, 4.31, 2.15, 1.08 mg/g
Experimental: Multiple-choice and a paired two-choice bioassays were used in this study. A schematic representation of the bioassay set-ups is depicted in FIG. 19. Soybean oil was used as a food source for all the bioassays (Great Value, purchased from Walmart in Greenville Mississippi). The feeding apparatus was a filtered 1-ml pipette tip with the part 0.5 cm below the filter removed. In multiple-choice bioassays, four to six concentrations of tested compounds were tested with untreated soybean oil as a control, and in two-choice bioassays, the compound at certain concentration was tested against the control oil or oil treated with known fire ant attractant. Eighty microliter soybean oil was loaded onto each filter. After being weighed, the apparatuses with oil were placed in the field for about 2 hours. The apparatuses were then collected and frozen under −40° C. to kill all ants. The apparatuses were weighed again after all ants were removed from the apparatuses. The difference in the weight of apparatuses before and after the feeding bioassays was the oil consumption. There were six to 10 replicates for each bioassay. Feeding sites were at least 10 m away from each other. The difference in oil consumption among/between treatment and control apparatuses was used to evaluate the effect of tested compound on the feeding of fire ants. For multiple-choice bioassays, a one-way ANOVA was performed to compare the effect of different concentrations of tested compound on the percentage of oil consumption. Tukey's HSD test was used for multiple comparisons. A paired t test was used in statistical analysis for the two-choice bioassays. For each fatty acid, eight concentrations were tested in two separate multiple-choice bioassays. For 10-oxo-dodecnoic acid, the first set used in the multiple-choice bioassay included concentrations of 0.00 mg/g (control), 9.09 mg/g, 4.54 mg/g, 2.27 mg/g, and 1.14 mg/g, and the second set included 0.00 mg/g, […], 0.28 mg/g, 0.142 mg/g, and 0.07 mg/g. There were seven replicates for each set of bioassay. For 11-oxo-dodecnoic acid, the first set used in the multiple-choice bioassay included concentrations of 0.00 mg/g, 8.62 mg/g, 4.31 mg/g, 2.15 mg/g, and 1.08 mg/g, and the second set included 0.00 mg/g, 0.54 mg/g, 0.27 mg/g, 0.14 mg/g, and 0.07 mg/g. There were six replicates for the first set of bioassay and seven replicates for the second set of bioassay. Five oxo fatty acid analogs were tested in the filed using two-choice or multiple-choice bioassays. Tested were 8-oxo-decanoic acid, 9-oxo-2-decenoic acid, 9-oxo-decanoic acid, 11-oxo-tridecanoic acid, and 12-oxo-tetradecanoic acid. Eight oxo-decanoic acid was tested in a multiple-choice bioassay at 6 different concentrations including 0.00 mg/g, 0.81 mg/g, 0.41 mg/g, 0.20 mg/g, 0.10 mg/g, and 0.05 mg/g. There were 10 replicates for the bioassay. For 9-oxo-2-decenoic acid, a two-choice bioassay was conducted with each of the following six concentrations: 0.39 mg/g, 0.197 mg/g, 0.098 mg/g, 0.049 mg/g, 0.025 mg/g, and 0.012 mg/g. There were 5 to 7 replicates for each two-choice bioassay. For 9-oxo-decanoic acid, a multiple-choice bioassay was conducted at six concentrations including 0.00 mg/g, 0.124 mg/g, 0.062 mg/g, 0.031 mg/g, 0.016 mg/g, and 0.007 mg/g. There were 11 replicates. For 11-oxo-tridecanoic acid, a multiple-choice bioassay was conducted at five concentrations including 0.00 mg/g, 7.71 mg/g, 3.86 mg/g, 1.93 mg/g, and 0.96 mg/g. There were 6 replicates. For 12-oxo-tetradecanoic acid, a multiple-choice bioassay was conducted at six concentrations including 0.00 mg/g, 1.15 mg/g, 0.58 mg/g, 0.29 mg/g, 0.14 mg/g, and 0.07 mg/g. There were 7 replicates.

fire ants [2] = conditions: Vander Meer et al., 2009; cited from earlier work
fire ants [3] = experiment: Field paired two-choice feeding bioassay (soybean oil consumption); type: in vivo, Solenopsis invicta
Experimental: Multiple-choice and a paired two-choice bioassays were used in this study. A schematic representation of the bioassay set-ups is depicted in FIG. 19. Soybean oil was used as a food source for all the bioassays (Great Value, purchased from Walmart in Greenville Mississippi). The feeding apparatus was a filtered 1-ml pipette tip with the part 0.5 cm below the filter removed. In multiple-choice bioassays, four to six concentrations of tested compounds were tested with untreated soybean oil as a control, and in two-choice bioassays, the compound at certain concentration was tested against the control oil or oil treated with known fire ant attractant. Eighty microliter soybean oil was loaded onto each filter. After being weighed, the apparatuses with oil were placed in the field for about 2 hours. The apparatuses were then collected and frozen under −40° C. to kill all ants. The apparatuses were weighed again after all ants were removed from the apparatuses. The difference in the weight of apparatuses before and after the feeding bioassays was the oil consumption. There were six to 10 replicates for each bioassay. Feeding sites were at least 10 m away from each other. The difference in oil consumption among/between treatment and control apparatuses was used to evaluate the effect of tested compound on the feeding of fire ants. For multiple-choice bioassays, a one-way ANOVA was performed to compare the effect of different concentrations of tested compound on the percentage of oil consumption. Tukey's HSD test was used for multiple comparisons. A paired t test was used in statistical analysis for the two-choice bioassays.
Five oxo fatty acid analogs were tested in the filed using two-choice or multiple-choice bioassays. Tested were 8-oxo-decanoic acid, 9-oxo-2-decenoic acid, 9-oxo-decanoic acid, 11-oxo-tridecanoic acid, and 12-oxo-tetradecanoic acid. Eight oxo-decanoic acid was tested in a multiple-choice bioassay at 6 different concentrations including 0.00 mg/g, 0.81 mg/g, 0.41 mg/g, 0.20 mg/g, 0.10 mg/g, and 0.05 mg/g. There were 10 replicates for the bioassay. For 9-oxo-2-decenoic acid, a two-choice bioassay was conducted with each of the following six concentrations: 0.39 mg/g, 0.197 mg/g, 0.098 mg/g, 0.049 mg/g, 0.025 mg/g, and 0.012 mg/g. There were 5 to 7 replicates for each two-choice bioassay. For 9-oxo-decanoic acid, a multiple-choice bioassay was conducted at six concentrations including 0.00 mg/g, 0.124 mg/g, 0.062 mg/g, 0.031 mg/g, 0.016 mg/g, and 0.007 mg/g. There were 11 replicates. For 11-oxo-tridecanoic acid, a multiple-choice bioassay was conducted at five concentrations including 0.00 mg/g, 7.71 mg/g, 3.86 mg/g, 1.93 mg/g, and 0.96 mg/g. There were 6 replicates. For 12-oxo-tetradecanoic acid, a multiple-choice bioassay was conducted at six concentrations including 0.00 mg/g, 1.15 mg/g, 0.58 mg/g, 0.29 mg/g, 0.14 mg/g, and 0.07 mg/g. There were 7 replicates.
The following paired two-choice bioassays were conducted: 1) 10-oxo-dodecanoic acid at 1.14 mg/g vs trans, trans-2,4-heptadienal at 0.19 mg/g; 2) 11-oxo-dodecanoic acid at 1.08 mg/g vs trans, trans-2,4-heptadienal at 0.19 mg/g; 3) 10-oxo-dodecanoic acid at 1.14 mg/g vs 2-ethyl-3,6 (5)-dimethylpyrazine at 0.004 mg/g; 4) 11-oxo-dodecanoic acid at 1.08 mg/g vs 2-ethyl-3,6 (5)-dimethylpyrazine at 0.004 mg/g. The results are shown in Table 2 below, and FIG. 29A to FIG. 29D.

worker fire ants = experiment: Attraction bioassay (paired two choice, treated tube vs acetone control); type: in vivo, S. invicta; conditions: individual oxo acids, 20 μl acetone solution: 2.029 mg/ml 10-oxo-dodecanoic acid, 1.96 mg/ml 11-oxo-dodecanoic acid; host tray; 1 hour; paired t test
fire ants [4] = experiment: Feeding bioassay (laboratory paired two-choice, treated vs untreated soybean oil); type: in vivo, S. invicta; conditions: soybean oil with 1.90 μg/mg 10-oxo-dodecanoic acid, 7.273 μg/mg 11-oxo-dodecanoic acid, or 0.36 μg/mg mixture (38.12%/61.88%) vs untreated oil; 24 hours; paired t test
[5] = Bioassay 3: 10-oxo-dodecanoic acid 1.14 mg/g vs 2-ethyl-3,6 (5)-dimethylpyrazine 0.004 mg/g
[6] = Bioassay 3: 10-oxo-dodecanoic acid at 1.14 mg/g vs 2-ethyl-3,6 (5)-dimethylpyrazine at 0.004 mg/g
[7] = Bioassay 4: 11-oxo-dodecanoic acid 1.08 mg/g vs 2-ethyl-3,6 (5)-dimethylpyrazine 0.004 mg/g
[8] = Bioassay 4: 11-oxo-dodecanoic acid at 1.08 mg/g vs 2-ethyl-3,6 (5)-dimethylpyrazine at 0.004 mg/g
[9] = first multiple-choice bioassay (about 1 to 9 mg/g)
[10] = control 0.00 mg/g, field, about 2 hours
[11] = Bioassay 1: 10-oxo-dodecanoic acid 1.14 mg/g vs trans, trans-2,4-heptadienal 0.19 mg/g
[12] = Bioassay 1: 10-oxo-dodecanoic acid at 1.14 mg/g vs trans, trans-2,4-heptadienal at 0.19 mg/g
[13] = Bioassay 2: 11-oxo-dodecanoic acid 1.08 mg/g vs trans, trans-2,4-heptadienal 0.19 mg/g
[14] = Bioassay 2: 11-oxo-dodecanoic acid at 1.08 mg/g vs trans, trans-2,4-heptadienal at 0.19 mg/g

## 2-ethyl-3,6 (5)-dimethylpyrazine [reference compound]
Fire ants [1]
  difference among treatments and control in oil consumption / feeding preference on soybean oil (one-way ANOVA): significant difference
  concentration at which oil consumption was numerically the highest: 0.004 mg/g
Fire ants [1]; multiple-choice, 0.064 to 0.002 mg/g tested
  concentration that significantly improved the feeding preference of fire ant on soybean oil: 0.002 mg/g and 0.004 mg/g
Fire ants [2]
  concentration mostly preferred by fire ants: 30 ng/µL
Fire ants [3]; [5]
  difference in the effect on oil consumption between the two compounds: significantly higher oil consumption
Fire ants [3]; [6]
  Mean oil consumption: 19.53 mg
Fire ants [3]; [7]
  difference in the effect on oil consumption between the two compounds: significantly higher oil consumption
Fire ants [3]; [8]
  Mean oil consumption: 21.75 mg

## CCC(=O)CCCCCCC(=O)O [8-oxo-decanoic acid]
Fire ants [1]
  difference among treatments and control in oil consumption / feeding preference on soybean oil (one-way ANOVA): no significant difference

## CC(=O)CCCCCC=CC(=O)O [9-oxo-2-decenoic acid]
Fire ants [3]; 0.049 mg/g in soybean oil vs control
  feeding preference of fire ant on soybean oil: significantly improved

## CC(=O)CCCCCCCC(=O)O [9-oxo-decanoic acid]
Fire ants [1]
  difference among treatments and control in oil consumption / feeding preference on soybean oil (one-way ANOVA): no significant difference

## CCC(=O)CCCCCCCCC(=O)O [10-oxo-dodecanoic acid]
Worker fire ants
  difference in the number of ants between treatment vials and control vials: significant
Fire ants [1]; [9]
  concentration at which the effect on oil consumption was statistically significant compared to the control oil: 1.14 mg/g
Fire ants [1]; [10]
  effect of different concentrations on oil consumption (one-way ANOVA): significant effect
Fire ants [1]; second multiple-choice bioassay (0.07 to about 0.5 mg/g)
  concentration at which the effect on oil consumption was statistically significant compared to the control oil: 0.51 mg/g
Fire ants [4]
  difference in oil consumption between treatment and control: significant
Fire ants [3]; [11]
  difference in the effect on oil consumption between the two compounds: no significant difference
Fire ants [3]; [12]
  Mean oil consumption: 23.84 mg
Fire ants [3]; [5]
  difference in the effect on oil consumption between the two compounds: significant difference
Fire ants [3]; [6]
  Mean oil consumption: 12.69 mg

## CC(=O)CCCCCCCCCC(=O)O [11-oxo-dodecanoic acid]
Worker fire ants
  difference in the number of ants between treatment vials and control vials: significant difference
Fire ants [1]; dosage bioassays in soybean oil
  most active / most effective concentration: around 1.08 mg/g
Fire ants [1]; [9]
  concentration at which the effect on oil consumption was statistically significant compared to the control oil: 1.08 mg/g
Fire ants [1]; [10]
  effect of different concentrations on oil consumption (one-way ANOVA): significant effect
Fire ants [1]; second multiple-choice bioassay: 10-oxo 0.51, 0.28, 0.142, 0.07 mg/g, 11-oxo 0.54, 0.27, 0.14, 0.07 mg/g, control 0.00 mg/g, field, about 2 hours
  effect on oil consumption (one-way ANOVA): no significant effect
Fire ants [4]
  difference in oil consumption between treatment and control: significant difference
Fire ants [3]; [13]
  difference in the effect on oil consumption between the two compounds: no significant difference
Fire ants [3]; [14]
  Mean oil consumption: 21.23 mg
Fire ants [3]; [7]
  difference in the effect on oil consumption between the two compounds: significant difference
Fire ants [3]; [8]
  Mean oil consumption: 15.8 mg

## CCC(=O)CCCCCCCCCC(=O)O [11-oxo-tridecanoic acid]
Fire ants [1]
  difference among treatments and control in oil consumption / feeding preference on soybean oil (one-way ANOVA): no significant difference

## CCC(=O)CCCCCCCCCCC(=O)O [12-oxo-tetradecanoic acid]
Fire ants [1]
  difference among treatments and control in oil consumption / feeding preference on soybean oil (one-way ANOVA): no significant difference

## CC/C=C/C=C/C=O [trans, trans-2,4-heptadienal, reference compound]
Fire ants [1]
  difference among treatments and control in oil consumption / feeding preference on soybean oil (one-way ANOVA): did not significantly improve; also recorded: not significantly different
  concentration at which oil consumption was numerically the highest: 0.19 mg/g
Fire ants [3]; [11]
  difference in the effect on oil consumption between the two compounds: no significant difference
Fire ants [3]; [12]
  Mean oil consumption: 22.83 mg
Fire ants [3]; [13]
  difference in the effect on oil consumption between the two compounds: no significant difference
Fire ants [3]; [14]
  Mean oil consumption: 19.95 mg
